Test results from article PMC8854719, “Phase 1A/1B dose-escalation and -expansion study to evaluate the safety, pharmacokinetics, food effects and antitumor activity of pamiparib in advanced solid tumours” (British Journal of Cancer, 2021).
Marks after values point to notes of the source that are not given here.

Experiment: Safety and tolerability: adverse events, dose-limiting toxicities, MTD, RP2D (Phase 1A/1B)
Assay type: in vivo
Procedure: This was an open-label, Phase 1, dose-escalation/dose-expansion study, conducted across six study centres in Australia. The dose-escalation phase evaluated twice-daily (BID) and once-daily (QD) dosing, and the dose-expansion phase evaluated the BID RP2D from the dose-escalation phase and food effects (Fig. 1). The food-effects cohort comprised two sequences: fast followed by fed (sequence 1) and fed followed by fast (sequence 2). […] The decision to proceed to the next dose cohort was determined by the Safety Monitoring Committee and followed a modified 3 + 3 escalation scheme. […] When ≥2 DLTs occurred in the first 23 days of a dose level, the next lower dose level was declared the MTD. Safety was monitored and DLTs were assessed in all dose cohorts. […] The food-effects cohort investigated the effects of food on the PK of pamiparib in patients with advanced solid tumours.
The QD dosing regimen was added as an amendment to the protocol with the purpose of exploring the feasibility of a more convenient regimen.
Safety and tolerability were assessed throughout the study by monitoring adverse events (AEs), serious AEs, clinical laboratory measurements and physical examinations. Adverse events were categorised according to their severity (National Cancer Institute Common Terminology Criteria for Adverse Events v4.03) and relationship to the study treatment.

## C[C@]12CCCN1CC1=NNC(=O)c3cc(F)cc4[nH]c2c1c34 [pamiparib]
20 mg BID (n = 3)
  Ascites, AE of any grade: 0 (0.0) n (%)
  Back pain, AE of any grade: 0 (0.0) n (%)
  Constipation, AE of any grade: 0 (0.0) n (%)
  Cough, AE of any grade: 0 (0.0) n (%)
  Decreased appetite, AE of any grade: 0 (0.0) n (%)
  Diarrhoea, AE of any grade: 2 (66.7) n (%)
  Dose-limiting toxicity: 0 (0.0) n (%)
  Dyspnoea, AE of any grade: 1 (33.3) n (%)
  Fatigue, AE of any grade: 3 (100.0) n (%)
  Headache, AE of any grade: 1 (33.3) n (%)
  Hypoalbuminemia, AE of any grade: 0 (0.0) n (%)
  Hypomagnesemia, AE of any grade: 1 (33.3) n (%)
  Hypophosphatemia, AE of any grade: 0 (0.0) n (%)
  Increased AST, AE of any grade: 0 (0.0) n (%)
  Muscle spasms, AE of any grade: 0 (0.0) n (%)
  Nausea, AE of any grade: 2 (66.7) n (%)
  Neutropenia, AE of any grade: 0 (0.0) n (%)
  Non-cardiac chest pain, AE of any grade: 0 (0.0) n (%)
  Pain in extremity, AE of any grade: 1 (33.3) n (%)
  Peripheral sensory neuropathy, AE of any grade: 1 (33.3) n (%)
  Pleural effusion, AE of any grade: 0 (0.0) n (%)
  Pyrexia, AE of any grade: 0 (0.0) n (%)
  Treatment-emergent AE: 3 (100.0) n (%)
  Treatment-emergent AE: Grade 3 or higher: 1 (33.3) n (%)
  Treatment-emergent AE: Leading to death: 0 (0.0) n (%)
  Treatment-emergent AE: Leading to dose interruption: 3 (100.0) n (%)
  Treatment-emergent AE: Leading to dose modification: 3 (100.0) n (%)
  Treatment-emergent AE: Leading to dose reduction: 1 (33.3) n (%)
  Treatment-emergent AE: Leading to treatment discontinuation: 0 (0.0) n (%)
  Treatment-emergent AE: Serious: 1 (33.3) n (%)
  Treatment-related AE: 3 (100.0) n (%)
  Treatment-related AE: Grade 3 or higher: 1 (33.3) n (%)
  Treatment-related AE: Leading to death: 0 (0.0) n (%)
  Treatment-related AE: Leading to dose interruption: 1 (33.3) n (%)
  Treatment-related AE: Leading to dose modification: 1 (33.3) n (%)
  Treatment-related AE: Leading to dose reduction: 1 (33.3) n (%)
  Treatment-related AE: Leading to treatment discontinuation: 0 (0.0) n (%)
  Treatment-related AE: Serious: 0 (0.0) n (%)
  Upper respiratory tract infection, AE of any grade: 0 (0.0) n (%)
  Urinary tract infection, AE of any grade: 1 (33.3) n (%)
  Vomiting, AE of any grade: 2 (66.7) n (%)
40 mg BID (n = 6)
  Abdominal pain, AE of any grade: 0 (0.0) n (%)
  Anaemia, AE of any grade: 2 (33.3) n (%)
  Ascites, AE of any grade: 1 (16.7) n (%)
  Back pain, AE of any grade: 2 (33.3) n (%)
  Constipation, AE of any grade: 1 (16.7) n (%)
  Cough, AE of any grade: 0 (0.0) n (%)
  Decreased appetite, AE of any grade: 0 (0.0) n (%)
  Diarrhoea, AE of any grade: 2 (33.3) n (%)
  Dose-limiting toxicity: 1 (16.7)^a n (%)
  Dyspnoea, AE of any grade: 0 (0.0) n (%)
  Fatigue, AE of any grade: 2 (33.3) n (%)
  Headache, AE of any grade: 2 (33.3) n (%)
  Hypoalbuminemia, AE of any grade: 0 (0.0) n (%)
  Hypomagnesemia, AE of any grade: 0 (0.0) n (%)
  Hypophosphatemia, AE of any grade: 1 (16.7) n (%)
  Increased AST, AE of any grade: 1 (16.7) n (%)
  Muscle spasms, AE of any grade: 0 (0.0) n (%)
  Nausea, AE of any grade: 5 (83.3) n (%)
  Neutropenia, AE of any grade: 2 (33.3) n (%)
  Non-cardiac chest pain, AE of any grade: 0 (0.0) n (%)
  Pain in extremity, AE of any grade: 0 (0.0) n (%)
  Peripheral sensory neuropathy, AE of any grade: 0 (0.0) n (%)
  Pleural effusion, AE of any grade: 0 (0.0) n (%)
  Pyrexia, AE of any grade: 0 (0.0) n (%)
  Treatment-emergent AE: 6 (100.0) n (%)
  Treatment-emergent AE: Grade 3 or higher: 3 (50.0) n (%)
  Treatment-emergent AE: Leading to death: 0 (0.0) n (%)
  Treatment-emergent AE: Leading to dose interruption: 4 (66.7) n (%)
  Treatment-emergent AE: Leading to dose modification: 4 (66.7) n (%)
  Treatment-emergent AE: Leading to dose reduction: 0 (0.0) n (%)
  Treatment-emergent AE: Leading to treatment discontinuation: 1 (16.7) n (%)
  Treatment-emergent AE: Serious: 2 (33.3) n (%)
  Treatment-related AE: 6 (100.0) n (%)
  Treatment-related AE: Grade 3 or higher: 2 (33.3) n (%)
  Treatment-related AE: Leading to death: 0 (0.0) n (%)
  Treatment-related AE: Leading to dose interruption: 3 (50.0) n (%)
  Treatment-related AE: Leading to dose modification: 3 (50.0) n (%)
  Treatment-related AE: Leading to dose reduction: 0 (0.0) n (%)
  Treatment-related AE: Leading to treatment discontinuation: 0 (0.0) n (%)
  Treatment-related AE: Serious: 0 (0.0) n (%)
  Upper respiratory tract infection, AE of any grade: 1 (16.7) n (%)
  Urinary tract infection, AE of any grade: 0 (0.0) n (%)
  Vomiting, AE of any grade: 5 (83.3) n (%)
40 mg BID, n = 1
  Dose-limiting toxicities observed (description): Grade 2 nausea
60 mg BID
  Incidence of nausea: 54.5%
60 mg BID (n = 11)
  Abdominal pain, AE of any grade: 3 (27.3) n (%)
  Anaemia, AE of any grade: 4 (36.4) n (%)
  Ascites, AE of any grade: 0 (0.0) n (%)
  Back pain, AE of any grade: 1 (9.1) n (%)
  Constipation, AE of any grade: 1 (9.1) n (%)
  Cough, AE of any grade: 1 (9.1) n (%)
  Decreased appetite, AE of any grade: 1 (9.1) n (%)
  Diarrhoea, AE of any grade: 4 (36.4) n (%)
  Dose-limiting toxicity: 0 (0.0) n (%)
  Dyspnoea, AE of any grade: 1 (9.1) n (%)
  Fatigue, AE of any grade: 2 (18.2) n (%)
  Headache, AE of any grade: 0 (0.0) n (%)
  Hypoalbuminemia, AE of any grade: 2 (18.2) n (%)
  Hypomagnesemia, AE of any grade: 0 (0.0) n (%)
  Hypophosphatemia, AE of any grade: 1 (9.1) n (%)
  Increased AST, AE of any grade: 1 (9.1) n (%)
  Muscle spasms, AE of any grade: 1 (9.1) n (%)
  Nausea, AE of any grade: 6 (54.5) n (%)
  Neutropenia, AE of any grade: 0 (0.0) n (%)
  Non-cardiac chest pain, AE of any grade: 1 (9.1) n (%)
  Pain in extremity, AE of any grade: 1 (9.1) n (%)
  Peripheral sensory neuropathy, AE of any grade: 1 (9.1) n (%)
  Pleural effusion, AE of any grade: 2 (18.2) n (%)
  Pyrexia, AE of any grade: 0 (0.0) n (%)
  Treatment-emergent AE: 11 (100.0) n (%)
  Treatment-emergent AE: Grade 3 or higher: 9 (81.8) n (%)
  Treatment-emergent AE: Leading to death: 3 (27.3) n (%)
  Treatment-emergent AE: Leading to dose interruption: 8 (72.7) n (%)
  Treatment-emergent AE: Leading to dose modification: 8 (72.7) n (%)
  Treatment-emergent AE: Leading to dose reduction: 0 (0.0) n (%)
  Treatment-emergent AE: Leading to treatment discontinuation: 0 (0.0) n (%)
  Treatment-emergent AE: Serious: 9 (81.8) n (%)
  Treatment-related AE: 7 (63.6) n (%)
  Treatment-related AE: Grade 3 or higher: 1 (9.1) n (%)
  Treatment-related AE: Leading to death: 0 (0.0) n (%)
  Treatment-related AE: Leading to dose interruption: 2 (18.2) n (%)
  Treatment-related AE: Leading to dose modification: 2 (18.2) n (%)
  Treatment-related AE: Leading to dose reduction: 0 (0.0) n (%)
  Treatment-related AE: Leading to treatment discontinuation: 0 (0.0) n (%)
  Treatment-related AE: Serious: 1 (9.1) n (%)
  Upper respiratory tract infection, AE of any grade: 1 (9.1) n (%)
  Urinary tract infection, AE of any grade: 3 (27.3) n (%)
  Vomiting, AE of any grade: 4 (36.4) n (%)
80 mg BID
  Incidence of nausea: 80.0%
80 mg BID (n = 10)
  Abdominal pain, AE of any grade: 2 (20.0) n (%)
  Anaemia, AE of any grade: 4 (40.0) n (%)
